Experimental data: ChEMBL document CHEMBL3046640, “Synthesis and antimicrobial activity of bischalcone derivatives” (2013)
≈ marks a conversion by molar mass, not a printed value. Calls of active or inactive are those of the source. The calls are words filed in the database; no cut-off is given here.

Columns and labels:
Format in all cases: functional
[1] = tested on: Rhizopus arrhizus; assay: Antifungal activity against Rhizopus oryzae MTCC 262 assessed as growth inhibition at 100 ug/mL after 3 to 4 days by agar diffusion method; settings: read-out: DIZ
[2] = tested on: Rhizopus arrhizus; assay: Antifungal activity against Rhizopus oryzae MTCC 262 assessed as growth inhibition after 48 hr by broth dilution method
[3] = tested on: Staphylococcus aureus; assay: Antibacterial activity against Staphylococcus aureus ATCC 25923 assessed as growth inhibition after 24 hr by broth dilution method
[4] = tested on: Escherichia coli; assay: Antibacterial activity against Escherichia coli ATCC 25922 assessed as growth inhibition after 24 hr by broth dilution method
[5] = tested on: Aspergillus niger; assay: Antifungal activity against Aspergillus niger ATCC 16404 assessed as growth inhibition after 48 hr by broth dilution method
[6] = tested on: Candida albicans; assay: Antifungal activity against Candida albicans ATCC 10231 assessed as growth inhibition at 100 ug/mL after 3 to 4 days by agar diffusion method; settings: read-out: DIZ
[7] = tested on: Escherichia coli; assay: Antibacterial activity against Escherichia coli ATCC 25922 assessed as growth inhibition at 100 ug/mL after 24 hr by cup-plate method; settings: ATCC 25922, 24 h, read-out: DIZ
[8] = tested on: Staphylococcus aureus; assay: Antibacterial activity against Staphylococcus aureus ATCC 25923 assessed as growth inhibition at 100 ug/mL after 24 hr by cup-plate method; settings: ATCC 25923, 24 h, read-out: DIZ
[9] = tested on: Aspergillus niger; assay: Antifungal activity against Aspergillus niger ATCC 16404 assessed as growth inhibition at 100 ug/mL after 3 to 4 days by agar diffusion method; settings: read-out: DIZ
[10] = tested on: Pseudomonas aeruginosa; assay: Antibacterial activity against Pseudomonas aeruginosa ATCC 27853 assessed as growth inhibition at 100 ug/mL after 24 hr by cup-plate method; settings: ATCC 27853, 24 h, read-out: DIZ
[11] = tested on: Candida albicans; assay: Antifungal activity against Candida albicans ATCC 10231 assessed as growth inhibition after 48 hr by broth dilution method
[12] = tested on: Pseudomonas aeruginosa; assay: Antibacterial activity against Pseudomonas aeruginosa ATCC 27853 assessed as growth inhibition after 24 hr by broth dilution method

SMILES	zone of inhibition at 100 µg/mL [1] [mm]	MIC ([2]; MTCC 262, 48 h) [µg/mL]	MIC ([3]; ATCC 25923, 24 h) [µg/mL]	MIC [4]	MIC ([5]; ATCC 16404, 48 h) [µg/mL]	zone of inhibition at 100 µg/mL [6] [mm]	zone of inhibition at 100 µg/mL [7] [mm]	zone of inhibition at 100 µg/mL [8] [mm]	zone of inhibition at 100 µg/mL [9] [mm]	zone of inhibition at 100 µg/mL [10] [mm]	MIC ([11]; ATCC 10231, 48 h) [µg/mL]	MIC ([12]; ATCC 27853, 24 h) [µg/mL]	MIC ([4]; ATCC 25922, 24 h) [µg/mL]	MIC [2]	MIC [3]	MIC [11]	MIC [5]	MIC [12]
O=C(/C=C/c1cccc(Cl)c1)c1cc(C(=O)/C=C/c2cccc(Cl)c2)c(O)cc1O	10	50 (≈ 114 µM)	> 100	inactive	> 100	10	< 5	5	5	10	50 (≈ 114 µM)	50 (≈ 114 µM)						
COc1cccc(/C=C/C(=O)c2cc(C(=O)/C=C/c3cccc(OC)c3)c(O)cc2O)c1	15	25 (≈ 58.1 µM)	50 (≈ 116 µM)		50 (≈ 116 µM)	15	10	10	10	10	25 (≈ 58.1 µM)	50 (≈ 116 µM)	50 (≈ 116 µM)					
COc1cc(-c2cc(=O)c3cc4c(=O)cc(-c5cc(OC)c(OC)c(OC)c5)oc4cc3o2)cc(OC)c1OC	10	50 (≈ 91.5 µM)	> 100		50 (≈ 91.5 µM)	10	10	5	10	5	50 (≈ 91.5 µM)	> 100	50 (≈ 91.5 µM)					
CCN(CC)c1ccc(/C=C/C(=O)c2cc(C(=O)/C=C/c3ccc(N(CC)CC)cc3)c(OC)cc2OC)cc1	< 5			inactive	> 100	< 5	< 5	< 5	5	5		> 100		inactive	inactive	inactive		
CN(C)c1ccc(/C=C/C(=O)c2cc(C(=O)/C=C/c3ccc(N(C)C)cc3)c(O)cc2O)cc1	10	50 (≈ 110 µM)	50 (≈ 110 µM)		> 100	10	15	10	5	10	50 (≈ 110 µM)	50 (≈ 110 µM)	25 (≈ 54.8 µM)					
COc1cc(OC)c(C(=O)/C=C/c2cc(OC)c(OC)c(OC)c2)cc1C(=O)/C=C/c1cc(OC)c(OC)c(OC)c1	< 5		> 100			5	10	5	< 5	5	> 100	> 100	50 (≈ 86.4 µM)	inactive			inactive	
COc1cccc(/C=C/C(=O)c2cc(C(=O)/C=C/c3cccc(OC)c3)c(OC)cc2OC)c1	< 5					5	5	< 5	< 5	< 5	> 100		> 100	inactive	inactive		inactive	inactive
